Ki and IC50 data for 2 compounds are collected here from article PMC7072624 (Biomolecules, 2020).

pIC50, pKi: −log10 of the molar value.

The target of assay [1] is T1, peroxisome proliferator-activated receptor γ (PPARγ) (Homo sapiens, UniProt P37231).
T1 construct: gene PPARG
T1 sequence (P37231 223-505): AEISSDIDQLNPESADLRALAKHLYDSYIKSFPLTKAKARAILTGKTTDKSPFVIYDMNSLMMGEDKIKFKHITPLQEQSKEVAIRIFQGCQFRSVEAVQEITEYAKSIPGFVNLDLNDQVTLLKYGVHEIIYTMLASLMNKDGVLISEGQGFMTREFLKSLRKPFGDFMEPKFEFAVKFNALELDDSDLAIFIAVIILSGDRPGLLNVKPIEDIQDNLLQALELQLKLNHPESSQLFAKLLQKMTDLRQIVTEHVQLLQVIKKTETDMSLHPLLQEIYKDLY
Nature of the assay: ([…] Å); competitive TR-FRET binding assay. For orientation: Time-resolved FRET reads energy transfer from a long-lived donor to a nearby acceptor.

The target of a further assay is T2, CDK5 (CDK5/p25) (Homo sapiens, UniProt Q00535).
T2 construct: with p25
Put plainly: in vitro kinase inhibition assay. The format is biochemical.

The next assay has as its target T3, PPARγ (Homo sapiens, UniProt P37231).
T3 construct: gene PPARG
T3 sequence (P37231 1-505): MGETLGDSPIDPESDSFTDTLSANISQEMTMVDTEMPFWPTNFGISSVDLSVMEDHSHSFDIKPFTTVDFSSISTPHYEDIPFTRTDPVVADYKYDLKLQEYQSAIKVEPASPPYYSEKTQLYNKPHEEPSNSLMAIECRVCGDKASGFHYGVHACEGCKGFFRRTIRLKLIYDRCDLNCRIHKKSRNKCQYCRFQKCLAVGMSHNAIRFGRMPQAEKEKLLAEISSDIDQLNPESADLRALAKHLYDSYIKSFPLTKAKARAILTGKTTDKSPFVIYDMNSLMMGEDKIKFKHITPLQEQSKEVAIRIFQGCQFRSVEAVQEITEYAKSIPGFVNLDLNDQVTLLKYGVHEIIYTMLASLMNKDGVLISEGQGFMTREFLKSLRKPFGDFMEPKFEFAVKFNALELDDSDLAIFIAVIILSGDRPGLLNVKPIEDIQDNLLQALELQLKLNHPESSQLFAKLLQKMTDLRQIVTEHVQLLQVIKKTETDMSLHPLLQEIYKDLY
Nature of the assay: competitive TR-FRET binding assay (Lanthascreen).

T2 sequence (Q00535 whole entry): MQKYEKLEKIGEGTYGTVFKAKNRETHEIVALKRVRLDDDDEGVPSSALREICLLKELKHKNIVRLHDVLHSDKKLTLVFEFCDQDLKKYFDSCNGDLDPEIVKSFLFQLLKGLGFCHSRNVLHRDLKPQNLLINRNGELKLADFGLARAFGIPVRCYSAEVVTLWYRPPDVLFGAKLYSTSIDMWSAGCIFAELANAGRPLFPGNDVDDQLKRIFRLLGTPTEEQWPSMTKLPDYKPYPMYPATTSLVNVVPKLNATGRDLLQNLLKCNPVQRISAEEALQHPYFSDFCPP
T2 sequence (Q15078 2-307 partner): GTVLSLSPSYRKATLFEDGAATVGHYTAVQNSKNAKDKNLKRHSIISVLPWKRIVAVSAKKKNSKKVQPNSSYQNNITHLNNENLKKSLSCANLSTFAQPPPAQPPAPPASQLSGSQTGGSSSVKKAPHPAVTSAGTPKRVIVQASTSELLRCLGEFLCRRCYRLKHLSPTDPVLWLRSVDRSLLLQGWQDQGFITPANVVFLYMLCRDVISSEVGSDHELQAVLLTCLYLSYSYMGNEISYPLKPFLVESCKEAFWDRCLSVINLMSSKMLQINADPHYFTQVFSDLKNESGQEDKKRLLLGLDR

Broadly, the pKi is the negative decadic logarithm of the Ki, by convention in mol/L. By pIC50 is commonly meant the IC50 on a negative log10 scale, so that one unit is a factor of ten. With `COC(=O)[C@]1(Cc2ccc(O)c(CC=C(C)C)c2)OC(=O)C(O)=C1c1ccc(O)cc1` [butyrolactone I], the pKi in assay [1] was 5.58. The pIC50 at CDK5 (CDK5/p25) was 6.77. Compound `COc1ccc(Cl)cc1C(=O)NCCc1ccc(S(=O)(=O)NC(=O)NC2CCCCC2)cc1` [glibenclamide] gave a negative logarithm of the Ki (pKi) at PPARγ of 5.93.
